Source: ChEMBL document CHEMBL5579823, “Discovery of 7-alkoxybenzofurans as PDE4 inhibitors with hepatoprotective activity in D-GalN/LPS-induced hepatic sepsis” (Eur J Med Chem, 2024)
Each block holds one molecule with its values, some of them ahead of it. The source made the active and inactive calls. No cut-off for these calls is given here.

Columns and labels:
[1] = molecular target: T1, 3',5'-cyclic-AMP phosphodiesterase 4B (Homo sapiens, UniProt Q07343); assay: Inhibition of PDE4B1 (unknown origin)
[2] = molecular target: T2, 3',5'-cyclic-AMP phosphodiesterase 4D (Homo sapiens, UniProt Q08499); assay: Inhibition of PDE4D7 (unknown origin)
[3] = Half-life in Sprague-Dawley rat at 5 mg/kg, iv by LC-MS/MS analysis; type: ADME, organism-based; conditions: in vivo
[4] = molecular target: T1, 3',5'-cyclic-AMP phosphodiesterase 4B; assay: Inhibition of recombinant human N-terminal GST-tagged PDE4B1 (1 to 736 residues) expressed in Sf9 insect cells using FAM-cyclic-3',5'-AMP as substrate measured after 1 hr by fluorescence polarization assay
[5] = molecular target: cGMP-inhibited 3',5'-cyclic phosphodiesterase 3B (Homo sapiens) (UniProt Q13370); assay: Inhibition of recombinant human N-terminal GST-tagged PDE3B (592 to 1112 residues) expressed in Sf9 insect cells at 10 uM using FAM-cyclic-3',5'-AMP as substrate measured after 1 hr by fluorescence polarization assay relative to control
[6] = molecular target: cGMP-specific 3',5'-cyclic phosphodiesterase (Homo sapiens) (UniProt O76074); assay: Inhibition of PDE5A (unknown origin) at 10 uM using FAM-cyclic-3',5'-AMP as substrate measured after 1 hr by fluorescence polarization assay relative to control
[7] = molecular target: High affinity 3',5'-cyclic-AMP phosphodiesterase 7A (Homo sapiens) (UniProt Q13946); assay: Inhibition of PDE7A (unknown origin) at 10 uM using FAM-cyclic-3',5'-AMP as substrate measured after 1 hr by fluorescence polarization assay relative to control
[8] = molecular target: High affinity cGMP-specific 3',5'-cyclic phosphodiesterase 9A (Homo sapiens) (UniProt O76083); assay: Inhibition of human N-terminal GST-tagged full-length PDE9A2 expressed in baculovirus infected Sf9 insect cells at 10 uM using FAM-cyclic-3',5'-AMP as substrate measured after 1 hr by fluorescence polarization assay relative to control
[9] = molecular target: cGMP-inhibited 3',5'-cyclic phosphodiesterase 3B (Homo sapiens) (UniProt Q13370); assay: Inhibition of recombinant human N-terminal GST-tagged PDE3B (592 to 1112 residues) expressed in Sf9 insect cells at 20 uM using FAM-cyclic-3',5'-AMP as substrate measured after 1 hr by fluorescence polarization assay relative to control
[10] = molecular target: cGMP-specific 3',5'-cyclic phosphodiesterase (Homo sapiens) (UniProt O76074); assay: Inhibition of PDE5A (unknown origin) at 20 uM using FAM-cyclic-3',5'-AMP as substrate measured after 1 hr by fluorescence polarization assay relative to control
[11] = molecular target: High affinity 3',5'-cyclic-AMP phosphodiesterase 7A (Homo sapiens) (UniProt Q13946); assay: Inhibition of PDE7A (unknown origin) at 20 uM using FAM-cyclic-3',5'-AMP as substrate measured after 1 hr by fluorescence polarization assay relative to control
[12] = molecular target: High affinity cGMP-specific 3',5'-cyclic phosphodiesterase 9A (Homo sapiens) (UniProt O76083); assay: Inhibition of human N-terminal GST-tagged full-length PDE9A2 expressed in baculovirus infected Sf9 insect cells at 20 uM using FAM-cyclic-3',5'-AMP as substrate measured after 1 hr by fluorescence polarization assay relative to control
[13] = MRT(0 to t) in Sprague-Dawley rat at 5 mg/kg, iv by LC-MS/MS analysis; type: ADME, organism-based; conditions: in vivo
[14] = Cmax in Sprague-Dawley rat at 5 mg/kg, iv by LC-MS/MS analysis; type: ADME, organism-based; conditions: in vivo
[15] = AUC (0 to t) in Sprague-Dawley rat at 5 mg/kg, iv by LC-MS/MS analysis; type: ADME, organism-based; conditions: in vivo
[16] = AUC (0 to infinity) in Sprague-Dawley rat at 5 mg/kg, iv by LC-MS/MS analysis; type: ADME, organism-based; conditions: in vivo
[17] = Clearance in Sprague-Dawley rat at 5 mg/kg, iv by LC-MS/MS analysis; type: ADME, organism-based; conditions: in vivo
[18] = Volume of distribution in Sprague-Dawley rat at 5 mg/kg, iv by LC-MS/MS analysis; type: ADME, organism-based; conditions: in vivo
[19] = Half-life in Sprague-Dawley rat at 5 mg/kg, po by LC-MS/MS analysis; type: ADME, organism-based; conditions: in vivo
[20] = MRT(0 to t) in Sprague-Dawley rat at 5 mg/kg, po by LC-MS/MS analysis; type: ADME, organism-based; conditions: in vivo
[21] = Cmax in Sprague-Dawley rat at 5 mg/kg, po by LC-MS/MS analysis; type: ADME, organism-based; conditions: in vivo
[22] = Tmax in Sprague-Dawley rat at 5 mg/kg, po by LC-MS/MS analysis; type: ADME, organism-based; conditions: in vivo
[23] = AUC(0 to t) in Sprague-Dawley rat at 5 mg/kg, po by LC-MS/MS analysis; type: ADME, organism-based; conditions: in vivo
[24] = AUC(0 to infinity) in Sprague-Dawley rat at 5 mg/kg, po by LC-MS/MS analysis; type: ADME, organism-based; conditions: in vivo
[25] = Clearance in Sprague-Dawley rat at 5 mg/kg, po by LC-MS/MS analysis; type: ADME, organism-based; conditions: in vivo
[26] = Volume of distribution in Sprague-Dawley rat at 5 mg/kg, po by LC-MS/MS analysis; type: ADME, organism-based; conditions: in vivo
[27] = Oral bioavailability in Sprague-Dawley rat at 5 mg/kg by LC-MS/MS analysis; type: ADME, organism-based; conditions: in vivo
Mus musculus [28] = assay: (§1) Hepatoprotective activity in GalN/LPS-induced C57BL/6J mouse hepatic sepsis model assessed as reduction in necrotic morphology at 1 to 3 mg/kg, IG administered once daily for 3 days followed by GalN/LPS addition 1 hr post-last dose measured after 4 hrs by hematoxylin and eosin staining based light microscopy; type: functional, organism-based; conditions: dose 1-3 mg/kg, time 3.0 day
Mus musculus [29] = assay: as §1, with “hepatomegaly” for “necrotic morphology”; type: functional, organism-based; conditions: dose 1-3 mg/kg, time 3.0 day
Mus musculus [30] = assay: as §1, with “aggregation of inflammatory cells” for “necrotic morphology”; type: functional, organism-based; conditions: dose 1-3 mg/kg, time 3.0 day
Mus musculus [31] = assay: Hepatoprotective activity in GalN/LPS-induced C57BL/6J mouse hepatic sepsis model assessed as reduction in ALT level at 1 to 3 mg/kg, IG administered once daily for 3 days followed by GalN/LPS addition 1 hr post-last dose measured after 4 hrs; type: functional, organism-based; conditions: dose 1-3 mg/kg, time 3.0 day
Mus musculus [32] = assay: Hepatoprotective activity in GalN/LPS-induced C57BL/6J mouse hepatic sepsis model assessed as reduction in AST level at 1 to 3 mg/kg, IG administered once daily for 3 days followed by GalN/LPS addition 1 hr post-last dose measured after 4 hrs; type: functional, organism-based; conditions: dose 1-3 mg/kg, time 3.0 day
[33] = molecular target: High affinity cAMP-specific 3',5'-cyclic phosphodiesterase 8A (Homo sapiens) (UniProt O60658); assay: Inhibition of human N-terminal GST-tagged full-length PDE8A1 expressed in baculovirus infected Sf9 insect cells at 10 uM using FAM-cyclic-3',5'-AMP as substrate measured after 1 hr by fluorescence polarization assay relative to control
[34] = molecular target: High affinity cAMP-specific 3',5'-cyclic phosphodiesterase 8A (Homo sapiens) (UniProt O60658); assay: Inhibition of human N-terminal GST-tagged full-length PDE8A1 expressed in baculovirus infected Sf9 insect cells at 20 uM using FAM-cyclic-3',5'-AMP as substrate measured after 1 hr by fluorescence polarization assay relative to control
Mus musculus [35] = assay: Hepatoprotective activity in GalN/LPS-induced C57BL/6J mouse hepatic sepsis model at 3 mg/kg, IG administered once daily for 3 days followed by GalN/LPS addition 1 hr post-last dose measured after 4 hrs by hematoxylin and eosin staining based light microscopy; type: functional, organism-based; conditions: time 3.0 day
[36] = molecular target: T2, 3',5'-cyclic-AMP phosphodiesterase 4D; assay: Inhibition of human N-terminal GST-tagged PDE4D7 (2 to 748 residues) expressed in baculovirus infected Sf9 insect cells using FAM-cyclic-3',5'-AMP as substrate measured after 1 hr by fluorescence polarization assay
[37] = Oral bioavailability in mouse at 5 mg/kg by LC-MS/MS analysis; type: ADME, organism-based; conditions: in vivo

T1 sequence (Q07343 whole entry): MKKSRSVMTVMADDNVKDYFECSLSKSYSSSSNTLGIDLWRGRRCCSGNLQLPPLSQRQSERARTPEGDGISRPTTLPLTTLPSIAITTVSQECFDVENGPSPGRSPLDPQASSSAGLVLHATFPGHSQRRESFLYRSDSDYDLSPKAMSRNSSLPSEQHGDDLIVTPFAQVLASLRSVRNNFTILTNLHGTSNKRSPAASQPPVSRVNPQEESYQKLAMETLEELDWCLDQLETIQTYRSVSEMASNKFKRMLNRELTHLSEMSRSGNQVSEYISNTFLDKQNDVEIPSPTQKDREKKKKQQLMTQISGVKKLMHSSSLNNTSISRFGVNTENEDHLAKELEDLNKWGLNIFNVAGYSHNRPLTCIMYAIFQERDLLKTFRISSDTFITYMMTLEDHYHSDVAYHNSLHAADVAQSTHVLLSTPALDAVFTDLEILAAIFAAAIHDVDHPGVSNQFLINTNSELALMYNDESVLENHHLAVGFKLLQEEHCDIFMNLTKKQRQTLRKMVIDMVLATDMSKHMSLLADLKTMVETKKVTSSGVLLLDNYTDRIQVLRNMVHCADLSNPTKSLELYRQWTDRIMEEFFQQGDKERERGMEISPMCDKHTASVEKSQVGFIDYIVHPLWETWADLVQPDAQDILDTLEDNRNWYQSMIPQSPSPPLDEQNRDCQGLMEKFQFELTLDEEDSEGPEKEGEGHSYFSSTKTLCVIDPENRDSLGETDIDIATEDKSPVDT
Chain of High affinity cAMP-specific 3',5'-cyclic phosphodiesterase 8A (Homo sapiens) (O60658 whole entry, looked up): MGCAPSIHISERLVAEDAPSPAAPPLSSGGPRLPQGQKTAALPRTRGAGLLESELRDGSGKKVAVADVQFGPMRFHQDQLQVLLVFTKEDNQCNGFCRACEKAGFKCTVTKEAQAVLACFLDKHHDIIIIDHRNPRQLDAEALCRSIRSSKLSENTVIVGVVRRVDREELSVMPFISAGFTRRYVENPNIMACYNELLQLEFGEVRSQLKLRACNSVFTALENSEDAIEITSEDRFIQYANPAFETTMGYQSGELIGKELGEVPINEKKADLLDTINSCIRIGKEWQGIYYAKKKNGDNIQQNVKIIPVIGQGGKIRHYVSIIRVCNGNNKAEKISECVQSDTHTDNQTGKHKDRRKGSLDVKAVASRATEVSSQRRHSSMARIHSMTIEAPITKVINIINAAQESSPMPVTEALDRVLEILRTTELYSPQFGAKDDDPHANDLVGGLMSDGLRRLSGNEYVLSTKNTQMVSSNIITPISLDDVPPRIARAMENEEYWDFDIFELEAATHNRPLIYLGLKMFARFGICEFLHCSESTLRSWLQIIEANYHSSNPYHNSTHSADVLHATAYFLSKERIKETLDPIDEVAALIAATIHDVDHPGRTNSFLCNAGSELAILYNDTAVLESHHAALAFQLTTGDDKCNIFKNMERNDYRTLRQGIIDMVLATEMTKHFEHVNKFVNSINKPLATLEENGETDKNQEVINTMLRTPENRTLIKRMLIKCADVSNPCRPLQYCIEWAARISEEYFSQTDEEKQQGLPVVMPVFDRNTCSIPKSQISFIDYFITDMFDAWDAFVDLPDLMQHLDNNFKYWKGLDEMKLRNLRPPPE
Chain of High affinity cGMP-specific 3',5'-cyclic phosphodiesterase 9A (Homo sapiens) (O76083 whole entry, the tested form may be a part): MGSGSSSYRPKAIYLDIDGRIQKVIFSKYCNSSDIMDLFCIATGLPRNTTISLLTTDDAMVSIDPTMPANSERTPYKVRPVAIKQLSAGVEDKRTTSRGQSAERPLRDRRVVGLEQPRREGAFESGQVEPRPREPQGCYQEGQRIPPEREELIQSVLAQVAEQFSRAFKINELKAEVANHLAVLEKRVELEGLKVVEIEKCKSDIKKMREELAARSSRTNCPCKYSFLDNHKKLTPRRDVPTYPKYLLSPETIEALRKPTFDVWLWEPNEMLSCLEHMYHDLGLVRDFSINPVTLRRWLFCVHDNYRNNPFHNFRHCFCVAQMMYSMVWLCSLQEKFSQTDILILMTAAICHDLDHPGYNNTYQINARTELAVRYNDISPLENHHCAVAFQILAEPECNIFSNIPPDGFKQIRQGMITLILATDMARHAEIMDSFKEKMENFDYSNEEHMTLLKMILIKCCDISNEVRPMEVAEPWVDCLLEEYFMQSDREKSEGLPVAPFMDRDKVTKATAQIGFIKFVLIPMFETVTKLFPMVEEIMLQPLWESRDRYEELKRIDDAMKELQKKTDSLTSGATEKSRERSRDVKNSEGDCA
T2 sequence (Q08499 whole entry): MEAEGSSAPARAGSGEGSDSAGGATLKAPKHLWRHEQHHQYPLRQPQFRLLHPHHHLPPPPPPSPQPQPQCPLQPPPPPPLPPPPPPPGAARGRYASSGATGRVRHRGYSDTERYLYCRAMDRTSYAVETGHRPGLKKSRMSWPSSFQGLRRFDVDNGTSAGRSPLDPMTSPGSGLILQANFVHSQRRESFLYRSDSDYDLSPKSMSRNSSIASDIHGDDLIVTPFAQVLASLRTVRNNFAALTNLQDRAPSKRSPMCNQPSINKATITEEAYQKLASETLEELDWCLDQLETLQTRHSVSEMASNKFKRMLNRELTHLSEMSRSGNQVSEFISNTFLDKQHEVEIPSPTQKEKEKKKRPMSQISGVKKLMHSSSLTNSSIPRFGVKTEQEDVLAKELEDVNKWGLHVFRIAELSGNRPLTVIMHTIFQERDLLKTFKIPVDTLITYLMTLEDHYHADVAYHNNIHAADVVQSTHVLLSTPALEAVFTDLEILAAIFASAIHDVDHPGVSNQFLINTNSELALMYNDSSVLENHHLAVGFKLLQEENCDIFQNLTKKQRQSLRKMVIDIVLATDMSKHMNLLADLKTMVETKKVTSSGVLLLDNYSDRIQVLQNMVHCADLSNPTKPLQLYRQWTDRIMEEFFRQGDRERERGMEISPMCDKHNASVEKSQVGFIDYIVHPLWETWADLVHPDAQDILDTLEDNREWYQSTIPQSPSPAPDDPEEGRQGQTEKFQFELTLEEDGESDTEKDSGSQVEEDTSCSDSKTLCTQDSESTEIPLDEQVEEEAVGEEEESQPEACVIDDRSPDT
Chain of cGMP-inhibited 3',5'-cyclic phosphodiesterase 3B (Homo sapiens) (Q13370 whole entry, looked up, the tested form may be a part): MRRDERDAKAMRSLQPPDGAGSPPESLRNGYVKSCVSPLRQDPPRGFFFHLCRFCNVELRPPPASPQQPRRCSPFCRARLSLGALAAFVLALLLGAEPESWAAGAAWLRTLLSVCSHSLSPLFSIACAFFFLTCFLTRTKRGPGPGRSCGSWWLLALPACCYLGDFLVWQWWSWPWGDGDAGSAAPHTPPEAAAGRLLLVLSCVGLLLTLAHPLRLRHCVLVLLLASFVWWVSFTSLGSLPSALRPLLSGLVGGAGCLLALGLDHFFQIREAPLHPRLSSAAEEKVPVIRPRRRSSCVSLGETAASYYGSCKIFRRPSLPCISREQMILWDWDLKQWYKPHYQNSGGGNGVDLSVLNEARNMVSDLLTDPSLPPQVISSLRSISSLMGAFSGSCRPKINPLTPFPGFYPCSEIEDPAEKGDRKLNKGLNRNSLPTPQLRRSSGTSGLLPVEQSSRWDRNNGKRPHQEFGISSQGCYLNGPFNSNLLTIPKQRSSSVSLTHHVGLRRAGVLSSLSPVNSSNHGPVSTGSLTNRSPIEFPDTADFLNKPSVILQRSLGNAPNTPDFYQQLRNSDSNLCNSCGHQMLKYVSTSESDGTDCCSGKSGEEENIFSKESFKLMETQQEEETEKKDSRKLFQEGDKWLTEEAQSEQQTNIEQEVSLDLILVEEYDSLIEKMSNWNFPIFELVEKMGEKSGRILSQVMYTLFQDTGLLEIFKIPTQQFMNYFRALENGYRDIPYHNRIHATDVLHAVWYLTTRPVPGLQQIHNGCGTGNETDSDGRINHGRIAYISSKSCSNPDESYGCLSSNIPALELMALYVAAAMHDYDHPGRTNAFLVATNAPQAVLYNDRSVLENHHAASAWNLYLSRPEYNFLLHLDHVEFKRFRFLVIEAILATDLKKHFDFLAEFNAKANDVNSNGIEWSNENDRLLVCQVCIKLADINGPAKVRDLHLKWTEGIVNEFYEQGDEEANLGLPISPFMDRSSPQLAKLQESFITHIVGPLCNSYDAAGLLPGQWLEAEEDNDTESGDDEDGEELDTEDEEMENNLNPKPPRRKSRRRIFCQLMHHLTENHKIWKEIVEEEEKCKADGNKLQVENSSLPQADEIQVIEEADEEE
Chain of High affinity 3',5'-cyclic-AMP phosphodiesterase 7A (Homo sapiens) (Q13946 whole entry): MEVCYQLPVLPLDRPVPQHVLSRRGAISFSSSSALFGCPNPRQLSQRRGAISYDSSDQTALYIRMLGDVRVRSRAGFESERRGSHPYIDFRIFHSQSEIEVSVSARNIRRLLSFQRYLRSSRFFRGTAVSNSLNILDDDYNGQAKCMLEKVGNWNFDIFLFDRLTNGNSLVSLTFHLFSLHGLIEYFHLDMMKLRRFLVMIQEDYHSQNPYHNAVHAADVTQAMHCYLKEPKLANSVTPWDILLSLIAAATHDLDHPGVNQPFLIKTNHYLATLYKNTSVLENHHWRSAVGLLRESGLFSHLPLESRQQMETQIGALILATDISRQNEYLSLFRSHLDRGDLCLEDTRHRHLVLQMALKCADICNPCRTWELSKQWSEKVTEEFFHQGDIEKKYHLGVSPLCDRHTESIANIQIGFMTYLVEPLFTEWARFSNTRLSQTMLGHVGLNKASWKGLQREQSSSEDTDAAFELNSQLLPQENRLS

IC50 [1]: 110 nM | IC50 [2]: 1610 nM
SMILES: CCNc1cc(C(=O)C2CCCC2)ccc1OC

t1/2 [3]: 1.29 h | IC50 [4]: 10 nM | inhibition [5]: 11% | inhibition [6]: 9% | inhibition [7]: 8% | inhibition [8]: 5% | inhibition [9]: 23% | inhibition [10]: 17% | inhibition [11]: 15% | inhibition [12]: 12% | MRT last [13]: 2.31 h | Cmax [14]: 1740 ng/mL | AUC(0-t) [15]: 5170 ng·h/mL | AUC [16]: 5299.87 ng·h/mL | clearance [17]: 15.8 mL/min/kg | Vd [18]: 1.76 L/kg | t1/2 [19]: 2 h | MRT last [20]: 2.74 h | Cmax [21]: 957 ng/mL | Tmax [22]: 0.88 h | AUC(0-t) [23]: 3440 ng·h/mL | AUC [24]: 3669.79 ng·h/mL | CL/F [25]: 22.8 mL/min/kg | Vd [26]: 3.91 L/kg | bioavailability [27]: 66% | inhibition [33]: 6% | inhibition [34]: 14%
SMILES: COc1ccc(C(=O)Cn2ccnc2)c2cc(C3CC3)oc12
Activity (Mus musculus [28]): Active | Activity (Mus musculus [29]): Active | Activity (Mus musculus [30]): Active | Activity (Mus musculus [31]): Active | Activity (Mus musculus [32]): Active

SMILES: COc1ccc(C2CNC(=O)C2)cc1OC1CCCC1 (stereo not drawn)
Activity (Mus musculus [35]): Active

IC50 [36]: 47 nM | IC50 [4]: 31 nM | bioavailability [37]: < 5%
SMILES: CC(C)NC(=O)c1ccc(OC(F)F)c(OCC2CC2)c1
